Measured values from patent US10757944B2, “Ozone treatment for elimination of pathogens” (priority 2016, dated 2020).
Several values for one entry are separate records, joined by “and”; a condition that tells them apart may be missing. Equal values may be shown once.

What was measured:
Type in all cases: cell-based
Escherichia Coli = assay: Gaseous ozone treatment of Cannabis inoculated with E. Coli, microbial count
Protocol: (§1) Cannabis plants were individually contaminated with Escherichia Coli, Salmonella enterica sv typhimurium, Listeria monocytogenes and Candida albicans then exposed to gaseous ozone for 20 minutes at 100 ppm and 200 ppm.
Pure cultures of Escherichia coli and Listeria monocytogenes provided by the American Type Culture Collection (ATCC) were grown in selective media broths. The Candida albicans provided by ATCC was grown on potato dextrose agar, and after significant growth was achieved, the colonies were transferred and suspended in Butterfield's buffer. After significant turbidity in each broth of pathogens was observed, they, along with Butterfield's buffer with the suspended Candida albicans, were used to inoculate individual Cannabis samples. […]
Three samples for each organism were tested at each of the concentrations. […] All samples were then analyzed for their microbial counts by first generating serial dilution using Butterfield's buffer as the diluent for each sample then individually plating the resultant dilutions onto selective media appropriate for the organism being analyzed. After the required incubation temperatures and times were completed, the organisms on the plates were counted. For each set of dilutions of a given sample and starting at the plate representing the lowest dilution ratio, the first plate that was countable was counted and the result was recorded. […]

[1] = tested on: Salmonella enterica sv typhimurium; assay: Gaseous ozone treatment of Cannabis inoculated with Salmonella, microbial count; conditions: for kill of bacterial pathogen (in words): 20 minutes; for Microbial Count: 20 min
Protocol: as §1
(§2) Pure cultures of Escherichia coli and Listeria monocytogenes provided by the American Type Culture Collection (ATCC) were grown in selective media broths. The Candida albicans provided by ATCC was grown on potato dextrose agar, and after significant growth was achieved, the colonies were transferred and suspended in Butterfield's buffer. After significant turbidity in each broth of pathogens was observed, they, along with Butterfield's buffer with the suspended Candida albicans, were used to inoculate individual Cannabis samples. This process created four individual populations of Cannabis with each population being contaminated with one of the four organisms grown. After inoculating the samples they were allowed to dry overnight by placing them out in the open at room temperature. Each population of Cannabis was then divided into smaller individual 2-4 gram samples which were used in the tests. One test consisted of placing nearly half of the smaller samples into an ozone gas chamber for 20 minutes at an approximate ozone concentration of 100 ppm. The remaining samples were set aside to be used as controls.
(§3) Three samples for each organism were tested at each of the concentrations. The control samples were placed into the same chamber for 20 minutes with an ozone concentration of 0 ppm. All samples were then analyzed for their microbial counts by first generating serial dilution using Butterfield's buffer as the diluent for each sample then individually plating the resultant dilutions onto selective media appropriate for the organism being analyzed. After the required incubation temperatures and times were completed, the organisms on the plates were counted. For each set of dilutions of a given sample and starting at the plate representing the lowest dilution ratio, the first plate that was countable was counted and the result was recorded.
(§4) Testing occurred over two days. The first day involved testing one sample of Cannabis for each organism at an ozone concentration of 100 ppm and another test of only Listeria at 50 ppm. Additional testing involving subsequent trials for each organism at ozone concentrations of 100 ppm and 200 ppm were conducted on the second day of testing.
(§5) The ozone concentration in the ozone chamber was kept at a range approximating the desired 100 ppm and 200 ppm concentrations. For instance, when the desired concentration was 100 ppm, the actual range of concentrations was 98 ppm to 106 ppm, and when the desired concentration was 200 ppm, the actual range of concentration was 198 ppm to 204 ppm. […]

Candida albicans = assay: Gaseous ozone treatment of Cannabis inoculated with Candida, microbial count; conditions: for Microbial Count: 20 min
Protocol: as §1, §2, §3, §4, §5

[2] = tested on: Escherichia Coli, Salmonella enterica sv typhimurium, Listeria monocytogenes and Candida albicans; assay: Gaseous ozone treatment of inoculated Cannabis, summary statements for all organisms
Protocol: as §1, §2
as §3, with “recorded. […]” for “recorded.”

total yeast and mold = assay: Total yeast and mold on homogenized cannabis flower after ozone exposure (3M Petrifilm Rapid Yeast and Mold Count Plate); conditions: for Average CFU/g (all samples tested) of yeast and mold remaining: 0 minutes: 68,000
Protocol: The ability of ozone to reduce fungus using an embodiment of a disclosed pathogen reduction device was also evaluated. In this series of experiments, homogenized cannabis flower with a total yeast and mold bio-burden exceeding 10,000 CFU/g was exposed to ozone using an embodiment of a disclosed pathogen reduction device. 20 gram samples of the cannabis flower were separated into two groups (10 grams a group) and placed on different racks within the pathogen reduction device. One 10 gram sample was placed on an industrial grade aluminum rack with air holes in order to maximize ozone flow and increase the surface area of the flower that would be exposed to ozone. A second 10 gram sample was place directly onto a rack screen (aluminum foil with holes pocked into it); however, because some of the homogenized cannabis flower was finer than the rack screen, some flower from the second 10 gram sample passed through the rack screen and landed on the lowest mesh screen in the device, thereby, creating a third sample for testing.
20 gram samples as described above were exposed to ozone for 0 minutes (control), 20 minutes, 30 minutes, 45 minutes, and 60 minutes at an ozone concentration of 200 ppm. Six 1 gram samples from each treatment time were processed and evaluated using a 3M® Petrifilm® Rapid Yeast and Mold Count Plate and accompanying Product Instructions. The ozone treated samples were homogenized, diluted with buffer (distilled water), and then 1 milliliter suspension samples were dispensed onto 3M® Petrifilm® Rapid Yeast and Mold Count Plates. The plates were incubated at 27° C. for greater than 60 hours in order to quantify the total yeast and mold remaining on the cannabis flower following exposure to ozone. Three of the six 1 gram samples were taken from the flower placed on the industrial grade aluminum rack as detailed above. Two of the 1 gram samples were taken from the flower placed directly on the screen. The final 1 gram sample was collected from the lowest mesh screen in the device where the finest flower collected after falling through the rack screen.

mold and yeast = assay: Additional ozone exposure tests on cannabis flower or trim, mold and yeast CFU; conditions: ozone 200 ppm
Protocol: Some additional ozone exposure tests were performed with cannabis flower or trim on a variety of commercially available strains using an embodiment of a disclosed pathogen reduction device. In each experiment (disclosed in Table 6) a reduction of mold and yeast CFU/g was measured (as disclosed above using 3M® Petrifilm® Rapid Yeast and Mold Count Plate and Product Instruction) after treating different weights of cannabis with an ozone concentration of 200 ppm for between 20 and 60 minutes.

CFUs on cannabis flower = assay: Exposure of cannabis flower to 200 ppm ozone, CFU reduction; conditions: between about 20 minutes and 90 minutes

O=[O+][O-] [ozone]
kill of Escherichia coli (in words) (Escherichia Coli; both 100 ppm and 200 ppm ozone, 20 minutes): significantly vulnerable | Microbial Count (Escherichia Coli; first day, target ozone 100 ppm (actual 95-102 ppm), 20 min, control (0 ppm) 1.2 * 10^11): 2.8 * 10^10 cfu/g | kill of bacterial pathogen (in words) ([1]; 100 ppm ozone, compared with 200 ppm): lesser kill rate | kill of bacterial pathogen (in words) ([1]; 200 ppm ozone): Significant kills | Microbial Count ([1]; first day, target ozone 100 ppm (actual 95-102 ppm), control (0 ppm) 1.1 * 10^11): 1.7 * 10^10 cfu/g | Microbial Count ([1]; second day, ozone 100 ppm (98-106 ppm), Trials 2-3, control 4.5 * 10^4): 1.1 * 10^4 cfu/g and 1.3 * 10^4 cfu/g | effect of ozone treatment on Candida albicans (in words) (Candida albicans; 100 ppm and 200 ppm ozone, 20 minutes): limited | microbial count of 200 ppm trials compared with the control group (in words) (Candida albicans; 200 ppm ozone, 20 minutes, FIG. 10): average reduced microbial count | Microbial Count (Candida albicans; listed as 'Mold Treated', first day, target ozone 100 ppm (actual 95-102 ppm), Mold Control (0 ppm) 1.4 * 10^12): 1.9 * 10^11 cfu/g | Microbial Count (Candida albicans; second day, ozone 100 ppm (98-106 ppm), Trials 2-3, control 5.0 * 10^5): 2.7 * 10^5 cfu/g and 1.5 * 10^4 cfu/g | kill of all of the organisms involved in the test (in words) ([2]; 100 ppm ozone, first day (Table 1)): significant kill | kill of all organisms compared to the controls (in words) ([2]; 100 ppm ozone, second day (Table 2)): significant kill | kills at 200 ppm compared to the kills at 100 ppm (in words) ([2]; 200 ppm ozone, second day (Table 2)): amount of kills increased | decrease in total yeast and mold bio-burden (total yeast and mold; 200 ppm ozone for 60 minutes): 92% | average Colony Forming Units/gram after treatment (total yeast and mold; 200 ppm ozone for 60 minutes, dropping from an average of 82,000 CFU/g): 7,000 CFR/g | Average CFU/g (all samples tested) of yeast and mold remaining (total yeast and mold; 200 ppm ozone, 20 minutes): 18,000 CFU/g | CFU/g (Test 1) (total yeast and mold; 200 ppm ozone, 20 minutes, Industrial grade aluminum rack (samples 4-6), T0: 25,000, 60,000, 82,000): 19,000 CFU/g and 12,000 CFU/g and 21,000 CFU/g | CFU/g (Test 2) (total yeast and mold; 200 ppm ozone, 20 minutes, Industrial grade aluminum rack (samples 4-6), T0: 53,000, 140,000, 130,000): 23,000 CFU/g and 18,000 CFU/g and 21,000 CFU/g | CFU/g (Test 2) (total yeast and mold; 200 ppm ozone, 20 minutes, Lowest mesh screen (sample 1), T0: 61,000): 24,000 CFU/g | CFU/g (Test 1) (total yeast and mold; 200 ppm ozone, 20 minutes, Lowest mesh screen (sample 1), T0: 77,000): 18,000 CFU/g | CFU/g (Test 2) (total yeast and mold; 200 ppm ozone, 20 minutes, Rack screen (samples 2-3), T0: 28,000, 77,000): 16,000 CFU/g and 17,000 CFU/g | CFU/g (Test 1) (total yeast and mold; 200 ppm ozone, 20 minutes, Rack screen (samples 2-3), T0: 30,000, 50,000): 15,000 CFU/g | Average CFU/g (all samples tested) of yeast and mold remaining (total yeast and mold; 200 ppm ozone, 30 minutes): 17,000 CFU/g | CFU/g (Test 1) (total yeast and mold; 200 ppm ozone, 30 minutes, Industrial grade aluminum rack (samples 4-6), T0: 25,000, 60,000, 82,000): 16,000 CFU/g and 11,000 CFU/g and 20,000 CFU/g | CFU/g (Test 2) (total yeast and mold; 200 ppm ozone, 30 minutes, Industrial grade aluminum rack (samples 4-6), T0: 53,000, 140,000, 130,000): 15,000 CFU/g and 14,000 CFU/g and 20,000 CFU/g | CFU/g (Test 2) (total yeast and mold; 200 ppm ozone, 30 minutes, Lowest mesh screen (sample 1), T0: 61,000): 20,000 CFU/g | CFU/g (Test 1) (total yeast and mold; 200 ppm ozone, 30 minutes, Lowest mesh screen (sample 1), T0: 77,000): 16,000 CFU/g | CFU/g (Test 2) (total yeast and mold; 200 ppm ozone, 30 minutes, Rack screen (samples 2-3), T0: 28,000, 77,000): 30,000 CFU/g and 16,000 CFU/g | CFU/g (Test 1) (total yeast and mold; 200 ppm ozone, 30 minutes, Rack screen (samples 2-3), T0: 30,000, 50,000): 18,000 CFU/g and 13,000 CFU/g | Average CFU/g (all samples tested) of yeast and mold remaining (total yeast and mold; 200 ppm ozone, 45 minutes): 16,000 CFU/g | CFU/g (Test 2) (total yeast and mold; 200 ppm ozone, 45 minutes, Lowest mesh screen (sample 1), T0: 61,000): 11,000 CFU/g | CFU/g (Test 1) (total yeast and mold; 200 ppm ozone, 45 minutes, Lowest mesh screen (sample 1), T0: 77,000): 7,100 CFU/g | CFU/g (Test 2) (total yeast and mold; 200 ppm ozone, 45 minutes, Rack screen (samples 2-3), T0: 28,000, 77,000): 15,000 CFU/g and 12,000 CFU/g | CFU/g (Test 1) (total yeast and mold; 200 ppm ozone, 45 minutes, Rack screen (samples 2-3), T0: 30,000, 50,000): 13,000 CFU/g and 11,000 CFU/g | Average CFU/g (all samples tested) of yeast and mold remaining (total yeast and mold; 200 ppm ozone, 60 minutes): 6,000 CFU/g | CFU/g (Test 2) (total yeast and mold; 200 ppm ozone, 60 minutes, Lowest mesh screen (sample 1), T0: 61,000): 9,000 CFU/g | CFU/g (Test 1) (total yeast and mold; 200 ppm ozone, 60 minutes, Lowest mesh screen (sample 1), T0: 77,000): 7,400 CFU/g | CFU/g (Test 2) (total yeast and mold; 200 ppm ozone, 60 minutes, Rack screen (samples 2-3), T0: 28,000, 77,000): 10,000 CFU/g and 6,300 CFU/g | CFU/g (Test 1) (total yeast and mold; 200 ppm ozone, 60 minutes, Rack screen (samples 2-3), T0: 30,000, 50,000): 6,000 CFU/g and 7,800 CFU/g | additional reduction in CFU/g (total yeast and mold; 200 ppm ozone, after the first 20 minutes and up until 45 minutes): 1.1% | another reduction in CFU/g (total yeast and mold; 200 ppm ozone, between a 45 minute and 60 minute exposure): 14.1% | yeast and mold across all 6 samples following treatment (total yeast and mold; 200 ppm ozone, from roughly 10^5 CFU/g): below 10,000 CFU/g | inhibition of fungi by ozone exposure (in words) (total yeast and mold; Table 4, 200 ppm ozone, 20-60 minutes): strongly inhibited | Ending CFU (mold and yeast; Flower, Hybrid, 5 lbs, 60:00 min, Initial CFU 77,000): 4500 CFU | Ending CFU (mold and yeast; Flower, Hybrid/Indica, 1 lb, 45:00 min, Initial CFU 2,200): 220 CFU | Ending CFU (mold and yeast; Flower, Hybrid/Indica, 6 lbs, 25:00 min, Initial CFU 51,750): 30,000-32,000 CFU | Ending CFU (mold and yeast; Flower, Hybrid/Indica, weight NA, 60:00 min, Initial CFU 110,000): 3,000 CFU | Ending CFU (mold and yeast; Flower, Hybrid/Sativa, 1 lb, 20:00 min, Initial CFU 100,000): 5,400-5,500 CFU | Ending CFU (mold and yeast; Flower, Indica, 3 lbs, 60:00 min, Initial CFU 320,000): 91,000 CFU | Ending CFU (mold and yeast; Trim, Hybrid/Indica, 6 lbs, 25:00 min, Initial CFU 17,000): 800-11,000 CFU | Ending CFU (mold and yeast; Trim, Hybrid/Sativa, 3 lbs, 60:00 min, Initial CFU 50,000): 3,000 CFU | reduction of CFUs (CFUs on cannabis flower): 100,000 to 150,000 CFUs per hour
